Key:
[1] = target: T1, β2AR-YFP fusion protein (Homo sapiens, UniProt P07550); assay: Confocal imaging of living U2OS cells expressing β2AR-YFP (staining, internalization, competitive displacement, no-wash); format: cell-based; details: 90 min, 100 nM carazolol-KK114 (24), 5 nM ab118171, no washing
T1 construct: host or cells: U2OS

[2] = target: β1AR (Homo sapiens, UniProt P08588); assay: TR-FRET receptor-ligand saturation binding assay, Tag-lite β1AR cells; details: 2 h at room temperature, read-out: Kd app
Sequence of β1AR (P08588 whole entry): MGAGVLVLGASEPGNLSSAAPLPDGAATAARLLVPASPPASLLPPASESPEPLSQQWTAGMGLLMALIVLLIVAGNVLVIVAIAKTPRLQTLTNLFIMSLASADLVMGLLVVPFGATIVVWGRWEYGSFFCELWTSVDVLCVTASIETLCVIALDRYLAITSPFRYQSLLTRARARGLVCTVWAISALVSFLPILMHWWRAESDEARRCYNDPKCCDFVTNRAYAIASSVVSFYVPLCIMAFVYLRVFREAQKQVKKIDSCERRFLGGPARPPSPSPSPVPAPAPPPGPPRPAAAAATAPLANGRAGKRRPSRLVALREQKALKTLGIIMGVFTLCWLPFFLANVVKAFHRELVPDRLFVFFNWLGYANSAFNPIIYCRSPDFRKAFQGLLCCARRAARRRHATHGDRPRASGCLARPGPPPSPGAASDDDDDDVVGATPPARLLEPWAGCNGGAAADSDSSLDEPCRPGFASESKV
Description: To confirm whether the affinity of carazolol-KK114 (24) is sufficient for the intended imaging experiments and to evaluate its β2/β1AR selectivity, we performed a TR-FRET assay in Tag-lite β1AR or β2AR transfected cells (Cisbio) labeled with Tb^3+ cryptate (Lumi4-Tb) (Fig. 3c)[39]. […] (Fig. 3d, Supplementary Fig. 5b). The high affinities of both fluorescent ligands enabled the imaging experiments.
K d determination was performed on Tag-lite β1AR (Cisbio, Cat. No. C1TT1BETA1) or β2AR (Cisbio, Cat. No. C1TT1BETA2) Tb^3+ cryptate labeled transfected cells. The β1AR or β2AR cells labeled with SNAP-Terbium interact with the specific ligand labeled with the corresponding fluorophore. […] 20 µl of a fluorescent probe or control compound in Tag-lite buffer was added to each well and incubated for 2 h at room temperature (20 °C) before readout. FRET readout was performed on a multiwell plate reader Spark 20 M (Tecan) at room temperature. […] The ratio of the acceptor and donor emission signals was calculated for each individual well using equation (3):3 Ratio=Signal655nm−BackgroundSignal/Signal620nm−BackgroundSignal
Luminescence background signal was measured in wells containing 40 µl of Tag-lite buffer only. Specific binding was calculated by subtracting nonspecific binding ratio from total binding ratio at each fluorescent ligand concentration. […]

T1 sequence (P07550 whole entry, the tested form may be a part): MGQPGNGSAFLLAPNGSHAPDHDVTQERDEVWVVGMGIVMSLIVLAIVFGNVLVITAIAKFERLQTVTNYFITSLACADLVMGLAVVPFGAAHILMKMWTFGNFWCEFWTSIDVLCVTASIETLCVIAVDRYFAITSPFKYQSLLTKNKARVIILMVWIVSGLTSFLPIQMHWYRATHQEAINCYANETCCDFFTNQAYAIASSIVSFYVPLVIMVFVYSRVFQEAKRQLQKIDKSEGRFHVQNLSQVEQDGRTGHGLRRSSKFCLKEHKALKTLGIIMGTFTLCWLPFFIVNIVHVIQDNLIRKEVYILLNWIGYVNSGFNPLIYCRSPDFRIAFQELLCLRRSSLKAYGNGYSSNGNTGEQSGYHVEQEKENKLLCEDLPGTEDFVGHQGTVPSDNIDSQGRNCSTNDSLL

CN(CCC(=O)NCCOCCOCCOCCOCCC(=O)NCCC(C)(C)NCC(O)COc1cccc2[nH]c3ccccc3c12)C(=O)c1c(F)c(F)c(F)c(F)c1C1=c2cc3c4c(c2Oc2c1cc1c5c2CCCN5C(C)(C)C=C1CS(=O)(=O)O)CCC[N+]=4C(C)(C)C=C3CS(=O)(=O)[O-] (centres unmarked) [Carazolol-KK114 (24)]
no-wash imaging staining [1]: specific staining

Cc1c(CCC(=O)NCCOCCOCCNC(=O)CCN(C)C(=O)c2c(F)c(F)c(F)c(F)c2C2=c3cc4c5c(c3Oc3c2cc2c6c3CCCN6C(C)(C)C=C2CS(=O)(=O)O)CCC[N+]=5C(C)(C)C=C4CS(=O)(=O)[O-])cccc1CC(C)(C)NCC(O)c1ccc(O)c2c1OCC(=O)N2 (centres unmarked) [BI-PEG-KK114 (18)]
Kd [2]: 63.4 ± 6.6 nM
